Where a chain is given by its changes, count along the chain named.
Assays:
muskarinen Rezeptoren = experiment: Receptor binding studies (Tabelle A), radioligand displacement; conditions: Radioligand L(+)cis-[2-Methyl-³H]-N,N,N-trimethyl-1, 3-dioxolan-4-methanammonium-jodid; Organ: Cerebraler Cortex (Ratte)
Source text: Die zur Synthese notwendigen Ausgangsverbindungen, die entsprechenden Hydroxyazabicycloalkane, sind aus dem Stand der Technik bekannt, [drawing 9] so z.B. für n = O aus JACS 74, 2215 (1952) (IIa), J. Org. Chem. 33, 4376 (1968) (IIb), der europäischen Patentanmeldung 307 140 (III) und J. Pharm. Science 52, 331 (1954) (IV). Ausgangsverbindungen (R = H), in denen n = 1 oder 2 bedeutet, sind durch Reduktion der entsprechenden Alkylester (X -R = COOAlkyl) erhältlich. Ausgehend von den entsprechenden Ketonen lassen sich die Thiole der allgemeinen Formeln II und III in Analogie zu dem in J. Chem. 43, 1965 beschriebenen Verfahren herstellen. Ist R in der allgemeinen Formel I ein aromatischer oder heteroaromatischer Rest, so können die Verbindungen der allgemeinen Formel I unter Anwendung der Mitsunobu Reaktion (O. Mitusunobu in Synthesis, 1, 1981, Georg Thieme Verlag, Stuttgart; J. C. S. Perkin I, Seite 462, 1975) durch Umsetzung der entsprechenden hydroxysubstituierten Reaktanden (Formel I R=H, Reagenz HOR, R=Phenyl,Heterocyclus) in Gegenwart von Azodicarbonsäurediethylester und Triphenylphospin erhalten werden. Die Umsetzung erfolgt im allgemeinen in inerten organischen Lösungsmitteln bei Raumtemperatur. Die Verbindungen der allgemeinen Formel I besitzen wertvolle pharmakologische Eigenschaften. So zeigen die Verbindungen in Bindungsstudien Affinitäten zu muskarinen Rezeptoren und muskarin-agonistische GTP-Shifts (GTP = Guanosintriphosphat). (Birdsall, N.I.M., E.C. Hulme and I.M. Stockton 1984 in T.I.P.S. Supplement, Proc. Internat. Symposium on Subtypes of Muscarinic Receptors, Ed. Hirschowitz, Hammer, Giacchetti, Klirns, Levine; Elsevier p. 4 - 8).
Die Rezeptorbindungsstudien wurden gemäß dem nachstehenden Literaturzitat ausgeführt [A. Closse, H. Bittiger, D. Langenegger und A. Wahner; Naunyn-Schmiedeberg's Arch. Pharmacol. 335, 372 - 377 (1987)].
Radioligand: L(+)cis-[2-Methyl-³H]-N,N,N-trimethyl-1, 3-dioxolan-4-methanammonium-jodid NET-647, Fa. NEN (New England Nuclear DU PONT). Organ: Cerebraler Cortex (Ratte)

Muskarinsubtypen M₃ = Muskarinsubtypen M₃ (Rattus norvegicus, UniProt P08483); experiment: Binding studies at muscarinic subtypes; design: species or system Ratte; conditions: gegenüber dem Razemat und dem (-)-Enantiomer
Muskarinsubtypen M₃, sequence (P08483 whole entry): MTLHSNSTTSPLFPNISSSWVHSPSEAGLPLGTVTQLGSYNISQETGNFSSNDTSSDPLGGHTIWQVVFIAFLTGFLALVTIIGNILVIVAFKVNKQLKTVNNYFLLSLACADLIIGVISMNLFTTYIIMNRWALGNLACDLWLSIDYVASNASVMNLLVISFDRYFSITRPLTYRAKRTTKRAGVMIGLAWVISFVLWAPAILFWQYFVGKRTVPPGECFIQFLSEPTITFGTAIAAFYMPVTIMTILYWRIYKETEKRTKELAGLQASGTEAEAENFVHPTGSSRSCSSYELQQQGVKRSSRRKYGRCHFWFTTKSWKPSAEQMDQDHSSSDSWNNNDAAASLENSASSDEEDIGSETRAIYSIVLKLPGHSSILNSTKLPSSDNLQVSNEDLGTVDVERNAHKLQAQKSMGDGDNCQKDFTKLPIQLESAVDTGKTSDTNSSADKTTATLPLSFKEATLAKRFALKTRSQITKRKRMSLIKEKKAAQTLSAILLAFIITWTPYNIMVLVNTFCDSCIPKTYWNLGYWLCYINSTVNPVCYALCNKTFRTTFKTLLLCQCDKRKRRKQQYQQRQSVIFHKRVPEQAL

Muskarinsubtypen M₁ = target: T1, Muskarinsubtypen M₁ (Rattus norvegicus, UniProt P08482); experiment: Binding studies at muscarinic subtypes; design: species or system Ratte; conditions: gegenüber dem Razemat und dem (-)-Enantiomer
T1 sequence (P08482 1-460): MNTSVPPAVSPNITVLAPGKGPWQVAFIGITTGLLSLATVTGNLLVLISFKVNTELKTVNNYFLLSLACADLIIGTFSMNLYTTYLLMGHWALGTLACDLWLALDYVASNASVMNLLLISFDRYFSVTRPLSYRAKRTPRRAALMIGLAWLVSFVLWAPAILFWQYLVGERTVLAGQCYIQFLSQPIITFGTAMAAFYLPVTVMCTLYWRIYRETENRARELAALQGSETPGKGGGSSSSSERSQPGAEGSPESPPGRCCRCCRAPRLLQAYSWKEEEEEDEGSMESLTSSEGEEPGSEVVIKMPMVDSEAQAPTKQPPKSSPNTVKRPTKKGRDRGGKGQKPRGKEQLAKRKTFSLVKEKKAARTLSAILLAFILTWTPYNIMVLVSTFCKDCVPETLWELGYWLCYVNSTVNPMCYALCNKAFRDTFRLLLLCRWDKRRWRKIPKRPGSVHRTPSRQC

human-m₁-Rezeptorsubtyp = target: T2, human-m₁-Rezeptorsubtyp (Homo sapiens, UniProt P11229); experiment: Stimulation of phosphatidylinositol turnover in CHO cell cultures; assay type: cell-based; conditions: CHO-Zellkulturen mit human-m₁-Rezeptorsubtyp; gegenüber dem Razemat und dem (-)-Enantiomer
T2 construct: expressed in transfected cells; host or cells: CHO cells
T2 sequence (P11229 1-460): T1 sequence (P08482 1-460) with V5A, S254T, S309P, K320R, G337A, V413I

Muskarinsubtypen M₂ = target: T3, Muskarinsubtypen M₂ (Rattus norvegicus, UniProt P10980); experiment: Binding studies at muscarinic subtypes; design: species or system Ratte; conditions: gegenüber dem Razemat und dem (-)-Enantiomer
T3 sequence (P10980 1-466): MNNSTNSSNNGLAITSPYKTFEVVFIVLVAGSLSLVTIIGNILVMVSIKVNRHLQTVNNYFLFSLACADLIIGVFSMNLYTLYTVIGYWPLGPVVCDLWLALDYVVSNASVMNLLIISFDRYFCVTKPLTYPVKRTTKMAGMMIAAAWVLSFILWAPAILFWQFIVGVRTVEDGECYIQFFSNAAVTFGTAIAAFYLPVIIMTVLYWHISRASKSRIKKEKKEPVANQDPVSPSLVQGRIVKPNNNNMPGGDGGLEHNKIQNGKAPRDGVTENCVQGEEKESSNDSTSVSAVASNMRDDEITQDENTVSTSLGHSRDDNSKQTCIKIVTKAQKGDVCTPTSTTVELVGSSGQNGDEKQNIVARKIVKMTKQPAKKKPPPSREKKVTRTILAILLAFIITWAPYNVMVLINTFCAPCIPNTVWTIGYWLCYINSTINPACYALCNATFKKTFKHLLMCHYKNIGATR

Kaninchen = experiment: Cholinomimetic in vivo activity by EEG (theta wave increase)
Source text: Die cholinomimetische in-vivo-Wirksamkeit von (+)-(Propargyloxymethyl)-1-aza-bicyclo- [2.2.2]octan wurde am Kaninchen mittels EEG (Thetawellenzunahme) nachgewiesen.

For c1ccc(COC2CN3CCC2CC3)cc1 (racemic) [Beispiel 4], the Ki (muskarinen Rezeptoren) was 229 nM.
For C#CCOCC1CN2CCC1CC2 (single isomer, unassigned; (+)) [(+)-3-(Propargyloxymethyl)-1-azabicyclo[2.2.2]octan], the “Bindungsstudien M₃: Wirksamkeit in vitro” value (Muskarinsubtypen M₃) was “stärker wirksam”, the “Bindungsstudien M₁: Wirksamkeit in vitro” value (Muskarinsubtypen M₁) was “stärker wirksam” and the “Stimulation des Phosphatidylinositol-turnovers” value (human-m₁-Rezeptorsubtyp) was “stärker wirksam”. For the same molecule, the “Bindungsstudien M₂: Wirksamkeit in vitro” value (Muskarinsubtypen M₂) was “stärker wirksam” and the “cholinomimetische in-vivo-Wirksamkeit (Thetawellenzunahme)” value (Kaninchen) was “nachgewiesen”.
c1cncc(OC2CN3CCC2CC3)c1 (centres unmarked) [Beispiel 1] gave a Ki (muskarinen Rezeptoren) of 120 nM.
c1ccc(OC2CN3CCC2CC3)cc1 (centres unmarked) [Beispiel 9, 3-Phenoxy-1-azabicyclo[2.2.2]octan] was tested, and the Ki (muskarinen Rezeptoren) was 89 nM.

From patent publication EP0458214A1, “Bicyclic 1-azacycloalcanes” (BOEHRINGER INGELHEIM KG, priority 1990, dated 1991)
